In paper PMC12489471, “A multi-dentate, cooperative interaction between endo- and exo-ribonucleases within the bacterial RNA degradosome” (Nucleic Acids Research, 2025):

B1: S. enterica PNPase core (domain or fragment, Salmonella enterica serovar Typhimurium, UniProt Q8ZLT3 1-552, looked up)
chain: MLNPIVRKFQYGQHTVTLETGMMARQATAAVMVSMDDTAVFVTVVGQKKAKPGQDFFPLTVNYQERTYAAGRIPGSFFRREGRPSEGETLIARLIDRPVRPLFPEGFVNEVQVIATVVSVNPQVNPDIVAMIGASAALSLSGIPFNGPIGAARVGYINDQYVLNPTQDELKESKLDLVVAGTEAAVLMVESEAELLSEDTMLGAVVFGHEQQQVVIQAINDLVKEAGKPRWDWQPEAVNDALNARVAALAESRLSDAYRITDKQERYAQVDVIKSETIEQLIAEDETLDANELGEILHAIEKNVVRSRVLAGEPRIDGREKDMIRGLDVRTGVLPRTHGSALFTRGETQALVTATLGTARDAQVLDELMGERTDSFLFHYNFPPYSVGETGMVGSPKRREIGHGRLAKRGVLAVMPDMDKFPYTVRVVSEITESNGSSSMASVCGASLALMDAGVPIKAAVAGIAMGLVKEGDNYVVLSDILGDEDHLGDMDFKVAGSRDGISALQMDIKIEGITKEIMQVALNQAKGARLHILGVMEQAINAPRGDISEFA
notes: polynucleotide phosphorylase (PNPase) core, Salmonella enterica serovar Typhimurium, aa 1–552; also called Salmonella typhimurium polynucleotide phosphorylase core; source: E. coli Evo21(DE3), purified (Ni-NTA, intein cleavage, HIC, Q, Superdex 200); not shown: Mycobacterium xenopi GyrA intein, C-terminal, cleaved; His8, C-terminal, cleaved

Key:
[1] = system: PNPase core; settings: X-ray, PDB: 3GCM; cited from earlier work
Description: Previous studies identified a PNPase binding motif encompassing residues 1039–1061 at the very C-terminus of E. coli RNase E (Fig. 1). […] Following the β-strand, there is a stretch of eight residues containing three prolines and two charged amino acids. The RNase E residues 1048–1061 will be referred to as ‘β1 motif’ hereafter (Fig. 2A). Multiple sequence alignment s ...

[2] = biological target: the molecule itself; assay: cryo-EM structure; purified PNPase core and RNase E-muGFP-CHis mixed 1:2, complex separated on Superdex 200 Increase in 20 mM Tris–HCl pH 8.0, 25 mM MgCl2, 150 mM KCl, 1 mM TCEP; 8 mM CHAPSO; E. coli and S. enterica proteins

| Molecule | binding mode in crystal structure [1] | stoichiometry N [2] |
| --- | --- | --- |
| RNase E residues 1021–1061: peptide encompassing RNase E residues 1021–1061 in crystal structure with PNPase (EAPRHSDWQRPTFAFEGKGAAGGHTATHHASAAPARPQPVE; UniProt P21513 1021-1061, looked up, fragment) | forms a β-strand that extends an exposed β-sheet of the PNPase core | – |
| B1 | – | 3 |
